Data as given in patent publication US5252469A, “Process for producing a transglutaminase derived from streptomyces” (Amano Pharmaceutical Co., Ltd., priority 1990, dated 1993).
Peptide text beside a SMILES is read from it.

molecular target: T1, MTGase (transglutaminase of guinea pig liver) (UniProt P08587); test: Substrate specificity: reaction of synthetic substrates with hydroxylamine; format: biochemical; conditions: Table 9; CBZ-Gln-Gly = 100
T1 construct: The guinea pig liver-derived transglutaminase was prepared by the method described in Connellan et al; from tissue; host or cells: guinea pig liver
T1 sequence (P08587 2-690 limits assumed): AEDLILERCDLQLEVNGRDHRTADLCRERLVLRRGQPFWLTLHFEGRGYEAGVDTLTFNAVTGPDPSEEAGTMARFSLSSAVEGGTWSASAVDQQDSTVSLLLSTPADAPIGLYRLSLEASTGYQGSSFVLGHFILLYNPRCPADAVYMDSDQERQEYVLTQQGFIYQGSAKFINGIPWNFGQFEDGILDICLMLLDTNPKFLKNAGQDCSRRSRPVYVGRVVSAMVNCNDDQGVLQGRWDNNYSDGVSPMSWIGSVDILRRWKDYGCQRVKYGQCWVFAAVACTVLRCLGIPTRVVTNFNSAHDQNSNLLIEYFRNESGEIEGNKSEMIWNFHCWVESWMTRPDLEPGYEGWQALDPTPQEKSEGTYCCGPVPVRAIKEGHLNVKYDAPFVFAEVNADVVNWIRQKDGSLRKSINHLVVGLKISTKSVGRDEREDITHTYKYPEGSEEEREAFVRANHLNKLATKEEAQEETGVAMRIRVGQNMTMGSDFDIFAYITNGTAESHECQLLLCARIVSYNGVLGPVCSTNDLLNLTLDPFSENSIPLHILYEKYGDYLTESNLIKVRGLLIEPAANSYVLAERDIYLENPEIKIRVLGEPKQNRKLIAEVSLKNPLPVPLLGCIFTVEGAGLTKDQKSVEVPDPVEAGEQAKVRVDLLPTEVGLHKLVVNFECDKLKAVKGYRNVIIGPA
Experimental: (§1) Measurement of the activity of BTGase is carried out by performing a reaction using benzyloxycarbonyl-L-glutaminyl glycine and hydroxylamine as substrates in the absence of Ca^2+, forming an iron complex with the resulting hydroxamic acid in the presence of trichloroacetic acid, measuring absorption at 525 nm and determining the amount of hydroxamic acid by a calibration curve to calculate the activity. The BTGase activity is measured by the method described below, unless otherwise indicated.
(§2) To 0.05 ml of an enzyme solution is added 0.5 ml of Reagent A and they are mixed with each other. After reacting at 37° C. for 10 minutes, Reagent B is added thereto to discontinue the reaction and form an Fe complex. Thereafter, absorbance is measured at 525 nm. As a control, absorbance is measured after reacting a previously thermally inactivated enzyme solution in a similar manner and a difference in absorbance between the control and the enzyme solution is measured. Separately, a calibration curve is prepared using L-glutamic acid γ-monohydroxamic acid instead of the enzyme solution, and the amount of hydroxamic acid produced is determined by the difference in absorbance described above. An enzyme activity which produces 1 μmol of hydroxamic acid per 1 minute is defined as 1 unit.
(§3) Using each BTGase, reactions of various synthetic substrates with hydroxylamine were examined. […] In this case, the concentration of various synthetic substrates is 5 mM. In the table, CBZ, Gln, Gly and Asn are abbreviations for benzyloxycarbonyl group, glutaminyl group, glycyl group and asparaginyl group, respectively.
Next, properties of BTGases are compared to those of guinea pig liver-derived transglutaminase. The guinea pig liver-derived transglutaminase was prepared by the method described in Connellan et al., Journal of Biological Chemistry, Vol. 246, No. 4, pp. 1093-1098 (1971). As will be apparent from Tables 9 and 10, various differences in enzymological properties are noted between transglutaminase of guinea pig liver (hereafter, referred to as MTGase) which has been mainly investigated heretofore and BTGases derived from the genus Streptomyces: in particular, differences are noted in temperature stability, molecular weight, isoelectric point and substrate specificity. Further, a difference is noted in that the BTGases of the present invention act in the presence and absence of Ca^2+. Therefore, the respective enzymes of the present invention are different from MTGase in their properties.

| SMILES | Substrate specificity (%), MTGase [%] |
| --- | --- |
| NCC(=O)N[C@@H](CCC(N)=O)C(=O)NCC(=O)O [Gly--Gln--Gly, glycylglutaminyl glycine] (H-Gly-Gln-Gly-OH) | 0 |

system: Enzyme No. 466 (transglutaminase of Streptomyces lavendulae No. 466); test: Influence of metal ions on transglutaminase activity; format: biochemical; conditions: 1 mM; text says all BTGases
Experimental: as §1
as §2, with “As a control, absorbance is measured after reacting a previously thermally inactivated enzyme solution in a similar manner and a difference in absorbance between the control and the enzyme solution is measured.” left out

| SMILES | Effect of metal ion on activity of Enzyme No. 466 (in words) |
| --- | --- |
| [Cl][Cu][Cl] [CuCl2] | inhibited |
| [Cl-].[Cl-].[Zn+2] [ZnCl2] | inhibited |
| [Cl][Pb][Cl] [PbCl2] | inhibited |

same assay, conditions: metal ion 1 mM in activity measurement system; None = 100; 10 min

| SMILES | Activity of Enzyme No. 466 with metal ion (%) |
| --- | --- |
| [Cl-].[Na+] [NaCl] | 98 |
| [Cl-].[Cl-].[Sr+2] [SrCl2] | 97 |
| [Cl][Cu][Cl] [CuCl2] | 90 |
| [Cl-].[Cl-].[Zn+2] [ZnCl2] | 10 |
| [Ba+2].[Cl-].[Cl-] [BaCl2] | 100 |
| [Cl-].[Cl-].[Co+2] [CoCl2] | 98 |
| [Cl][Pb][Cl] [PbCl2] | 32 |
| [Cl][Fe]([Cl])[Cl] [FeCl3] | 97 |

system: Enzyme No. 83 (transglutaminase of Streptomyces sp No. 83); test: as above; format: biochemical; conditions: 1 mM; text says all BTGases
Experimental: as §1
as §2, with “As a control, absorbance is measured after reacting a previously thermally inactivated enzyme solution in a similar manner and a difference in absorbance between the control and the enzyme solution is measured.” left out

| SMILES | Effect of metal ion on activity of Enzyme No. 83 (in words) |
| --- | --- |
| [Cl][Cu][Cl] [CuCl2] | inhibited |
| [Cl-].[Cl-].[Zn+2] [ZnCl2] | inhibited |
| [Cl][Pb][Cl] [PbCl2] | inhibited |

same assay, conditions: metal ion 1 mM in activity measurement system; None = 100; 10 min

| SMILES | Activity of Enzyme No. 83 with metal ion (%) |
| --- | --- |
| [Cl-].[Na+] [NaCl] | 102 |
| [Cl-].[K+] [KCl] | 104 |
| [Cl-].[Cl-].[Sr+2] [SrCl2] | 100 |
| [Cl][Cu][Cl] [CuCl2] | 89 |
| [Cl-].[Cl-].[Zn+2] [ZnCl2] | 36 |
| [Ba+2].[Cl-].[Cl-] [BaCl2] | 100 |
| [Cl-].[Cl-].[Co+2] [CoCl2] | 100 |
| [Cl][Pb][Cl] [PbCl2] | 59 |
| [Cl][Fe]([Cl])[Cl] [FeCl3] | 93 |

system: Enzyme No. 466 (transglutaminase of Streptomyces lavendulae No. 466); test: Substrate specificity: reaction of synthetic substrates with hydroxylamine; format: biochemical; conditions: Table 6; synthetic substrate 5 mM; CBZ-Gln-Gly = 100
Experimental: as §1, §2, §3

| SMILES | Substrate specificity, Enzyme No. 466 (reactivity of substrate with hydroxylamine) |
| --- | --- |
| NCC(=O)N[C@@H](CCC(N)=O)C(=O)NCC(=O)O [Gly--Gln--Gly, glycylglutaminyl glycine] (H-Gly-Gln-Gly-OH) | 0 |

same assay, conditions: Table 9; CBZ-Gln-Gly = 100

| SMILES | Substrate specificity (%), Enzyme No. 466 [%] |
| --- | --- |
| NCC(=O)N[C@@H](CCC(N)=O)C(=O)NCC(=O)O [Gly--Gln--Gly, glycylglutaminyl glycine] (H-Gly-Gln-Gly-OH) | 0 |

same assay, conditions: substrate 5 mM; text says BTGase (both enzymes)

| SMILES | Reactivity of synthetic substrate with Enzyme No. 466 (in words) |
| --- | --- |
| NCC(=O)N[C@@H](CCC(N)=O)C(=O)NCC(=O)O [Gly--Gln--Gly, glycylglutaminyl glycine] (H-Gly-Gln-Gly-OH) | No BTGase reacts |

system: Enzyme No. 83 (transglutaminase of Streptomyces sp No. 83); test: as above; format: biochemical; conditions: Table 6; synthetic substrate 5 mM; CBZ-Gln-Gly = 100
Experimental: as §1, §2, §3

| SMILES | Substrate specificity, Enzyme No. 83 (reactivity of substrate with hydroxylamine) |
| --- | --- |
| NCC(=O)N[C@@H](CCC(N)=O)C(=O)NCC(=O)O [Gly--Gln--Gly, glycylglutaminyl glycine] (H-Gly-Gln-Gly-OH) | 0 |

same assay, conditions: Table 9; CBZ-Gln-Gly = 100

| SMILES | Substrate specificity (%), Enzyme No. 83 [%] |
| --- | --- |
| NCC(=O)N[C@@H](CCC(N)=O)C(=O)NCC(=O)O [Gly--Gln--Gly, glycylglutaminyl glycine] (H-Gly-Gln-Gly-OH) | 0 |

same assay, conditions: substrate 5 mM; text says BTGase (both enzymes)

| SMILES | Reactivity of synthetic substrate with Enzyme No. 83 (in words) |
| --- | --- |
| NCC(=O)N[C@@H](CCC(N)=O)C(=O)NCC(=O)O [Gly--Gln--Gly, glycylglutaminyl glycine] (H-Gly-Gln-Gly-OH) | No BTGase reacts |

molecular target: T1, MTGase (transglutaminase of guinea pig liver); test: Influence of Ca2+ on activity; format: biochemical; conditions: 1 mM CaCl2
Experimental: as §1, §2
Next, properties of BTGases are compared to those of guinea pig liver-derived transglutaminase. […]

| SMILES | Activity of MTGase (%) |
| --- | --- |
| [Ca+2].[Cl-].[Cl-] [CaCl2] | 39 |

same assay, conditions: 5 mM CaCl2

| SMILES | Activity of MTGase (%) |
| --- | --- |
| [Ca+2].[Cl-].[Cl-] [CaCl2] | 100 |
